Results from patent US20080200403A1, “9A-Carbamoyl and Thiocarbamoyl Azalides with Anti-Inflammatory Activity” (GLAXOSMITHKLINE, priority 2005, published 2008).
Read-outs that look alike come from different tables or passages of the source.

What was measured:
Type in all cases: cell-based
TNF-α = assay: Inhibition of TNF-α production by stimulated human peripheral blood leukocytes in vitro; settings: PBL; for inhibition at 10 µM / inhibition at 50 µM: Homo sapiens, Leukocyte, read-out: Percentage of inhibition of TNF-α production
Description: (§1) Test substances used in in vitro experiments were dissolved in dimethyl sulfoxide (DMSO) (Kemika, Croatia) at concentrations of 50 mM and 10 mM, and were further diluted to final concentrations of 50 μM and 10 μM in 1 mL Dulbecco's modified Eagle medium (DMEM) supplemented with 1% heat inactivated fetal bovine serum (FBS), 1% L-glutamine, 50 U/ml penicillin, 50 μg/ml streptomycin and 2.5 μg/mL Fungizone (amphotericin B). Media and all media supplements were purchased from Gibco, Australia, except the FBS was purchased from Sigma, USA.
(§2) Peripheral blood leukocytes (PBL) were obtained from venous blood of healthy volunteers by sedimentation on 2% dextran T-500 (Amersham Biosciences, USA) and subsequent centrifugations of leukocyte rich plasma.
(§3) Peripheral blood leukocytes (PBL), isolated as described above, were seeded in a 48-well plate at a concentration of 3 to 5×10^6 cell per well in culture medium consisting of RPMI 1640 medium (Institute of Immunology, Croatia) supplemented with 10% heat-inactivated fetal calf serum (FCS, Biowhittaker, USA), 100 U/ml penicillin (Gibco, Australia), 100 μg/ml streptomycin (Gibco, Australia) and 2 mM L-glutamine (Gibco, Australia), and preincubated with the test compounds for 2 h at 37° C., in an atmosphere of 5% CO2, and 90% humidity. Then, stimuli (Sigma, USA) were added to a final concentration of 2 μg/mL lipopolysaccharide (LPS), 1 μg/mL phorbol 12-myristate 13-acetate (PMA) or 120 μg/mL zymosan. Samples were incubated overnight under conditions described above. At the end of incubation, the supernatants were transferred to eppendorf tubes and centrifuged for 10 min at 1500×g. Concentrations of human TNF-α, IL-1β, IL-6 and IL-8 were determined in cell supernatants by sandwich ELISA, using capture and detection antibodies (R&D Systems, Minneapolis, Minn.) according to the manufacturer's recommendations.
(§4) Inhibition (as percentage) was calculated using the following formula: % inhibition=(1−concentration of cytokines in sample/concentration of cytokines in positive control)×100. The positive control refers to stimulated samples, not treated with substances.

IL-6 = assay: Inhibition of IL-6 production by stimulated human peripheral blood leukocytes in vitro; settings: PBL; for inhibition at 10 µM / inhibition at 50 µM: Homo sapiens, Leukocyte, read-out: Percentage of inhibition of IL-6 production
Description: as §1, §2, §3, §4

IL-1α = assay: Inhibition of IL-1 production by stimulated human peripheral blood leukocytes in vitro; settings: PBL; for inhibition at 10 µM / inhibition at 50 µM: Homo sapiens, Leukocyte, read-out: Percentage of inhibition of IL-1α production
[1] = tested on: human peripheral blood mononuclear cells (PBMC); assay: Human T-cell proliferation in vitro (3H-thymidine incorporation); settings: for inhibition at 10 µM / inhibition at 50 µM: Homo sapiens, PBMC, read-out: Percentage of inhibition of proliferation of stimulated PBMC
Description: Influence of substances at two different concentrations (50 μM and 10 μM) on cell proliferation of human peripheral blood mononuclear cells (PBMC) was assessed.
Heparinized peripheral blood was obtained from healthy donors, and PBMC were isolated by Histopaque 1077 (Sigma, USA) density centrifugation at 400×g for 30 minutes. 5×10^4 cells/well were cultured for 3 days in the RPMI medium as described above, in the presence (positive control) or absence (negative control) of stimulators [PHA (2.5 μg/mL) (Sigma, USA), or both PMA (10 ng/mL) (Sigma, USA) and ionomycin (500 ng/mL) (Calbiochem, USA)], and in the presence of the test compounds, at 37° C. in an atmosphere of 5% CO2 and 90% humidity. The cells were pulsed with 1 μCi of ^3H-thymidine (Amersham, USA) per well during the last 18 h of the culture, and were harvested on the 96-well filter (Packard Bioscience, USA) using a multiple cell harvester (Packard, USA). The incorporation of ^3H-thymidine in activated cells were measured using TopCount NXT (Packard, USA).
Inhibition (as percentage) was calculated using the following formula: % inhibition=(1−(^3H)thymidine incorporation expressed in counts per minute (cpm) in sample/(^3H)thymidine incorporation expressed in cpm in positive control)×100
where positive control refers to stimulated samples, not treated with substances.

IL-8 = assay: Inhibition of IL-8 production by stimulated human peripheral blood leukocytes in vitro; settings: PBL; for inhibition at 10 µM / inhibition at 50 µM: Homo sapiens, Leukocyte, read-out: Percentage of inhibition of IL-8 production
Description: as §1, §2, §3, §4

[2] = zymosan stimulated, compound 10 μM
[3] = zymosan stimulated, compound 50 μM
[4] = PMA + ionomycin stimulated, compound 10 μM
[5] = PMA + ionomycin stimulated, compound 50 μM

## CC[C@H]1OC(=O)[C@H](C)[C@@H](O[C@H]2C[C@@](C)(OC)[C@@H](O)[C@H](C)O2)[C@H](C)[C@@H](O[C@@H]2O[C@H](C)C[C@H](N(C)C)[C@H]2O)[C@](C)(O)C[C@@H](C)CN(C(=S)Nc2cccc(Br)c2)[C@H](C)[C@@H](O)[C@]1(C)O [Compound 6]
TNF-α; LPS stimulated, compound 10 μM
  inhibition at 10 µM: 74%
TNF-α; LPS stimulated, compound 50 μM
  inhibition at 50 µM: 100%
TNF-α; PMA stimulated, compound 10 μM
  inhibition at 10 µM: 73%
TNF-α; PMA stimulated, compound 50 μM
  inhibition at 50 µM: 100%
TNF-α; [2]
  inhibition at 10 µM: 36%
TNF-α; [3]
  inhibition at 50 µM: 98%
IL-6; LPS stimulated, compound 10 μM
  inhibition at 10 µM: 59%
IL-6; LPS stimulated, compound 50 μM
  inhibition at 50 µM: 100%
IL-6; [2]
  inhibition at 10 µM: 6%
IL-6; [3]
  inhibition at 50 µM: 100%
IL-1α; LPS stimulated, compound 10 μM
  inhibition at 10 µM: 64%
IL-1α; LPS stimulated, compound 50 μM
  inhibition at 50 µM: 98%
IL-1α; PMA stimulated, compound 10 μM
  inhibition at 10 µM: 79%
IL-1α; PMA stimulated, compound 50 μM
  inhibition at 50 µM: 100%
IL-1α; [2]
  inhibition at 10 µM: 67%
IL-1α; [3]
  inhibition at 50 µM: 89%
[1]; PHA stimulated, compound 10 μM
  inhibition at 10 µM: 0%
[1]; PHA stimulated, compound 50 μM
  inhibition at 50 µM: 100%
[1]; [4]
  inhibition at 10 µM: 0%
[1]; [5]
  inhibition at 50 µM: 100%
IL-8; LPS stimulated, compound 10 μM
  inhibition at 10 µM: 43%
IL-8; LPS stimulated, compound 50 μM
  inhibition at 50 µM: 100%
IL-8; PMA stimulated, compound 10 μM
  inhibition at 10 µM: 23%
IL-8; PMA stimulated, compound 50 μM
  inhibition at 50 µM: 100%
IL-8; [2]
  inhibition at 10 µM: 41%
IL-8; [3]
  inhibition at 50 µM: 71%

## CC[C@H]1OC(=O)[C@H](C)[C@@H](O)[C@H](C)[C@@H](O[C@@H]2O[C@H](C)C[C@H](N(C)C)[C@H]2O)[C@](C)(O)C[C@@H](C)CN(C(=O)NCc2ccccc2)[C@H](C)[C@@H](O)[C@]1(C)O [Compound 8]
TNF-α; LPS stimulated, compound 10 μM
  Percentage of inhibition of TNF-α production: 58%
TNF-α; LPS stimulated, compound 50 μM
  Percentage of inhibition of TNF-α production: 30%
TNF-α; PMA stimulated, compound 10 μM
  Percentage of inhibition of TNF-α production: 56%
TNF-α; PMA stimulated, compound 50 μM
  Percentage of inhibition of TNF-α production: 54%
TNF-α; [2]
  Percentage of inhibition of TNF-α production: 16%
TNF-α; [3]
  Percentage of inhibition of TNF-α production: 0%
IL-6; LPS stimulated, compound 10 μM
  Percentage of inhibition of IL-6 production: 60%
IL-6; LPS stimulated, compound 50 μM
  Percentage of inhibition of IL-6 production: 82%
IL-6; [2]
  Percentage of inhibition of IL-6 production: 20%
IL-6; [3]
  Percentage of inhibition of IL-6 production: 18%
IL-1α; LPS stimulated, compound 10 μM
  Percentage of inhibition of IL-1α production: 42%
IL-1α; LPS stimulated, compound 50 μM
  Percentage of inhibition of IL-1α production: 40%
IL-1α; PMA stimulated, compound 10 μM
  Percentage of inhibition of IL-1α production: 26%
IL-1α; PMA stimulated, compound 50 μM
  Percentage of inhibition of IL-1α production: 0%
IL-1α; [2]
  Percentage of inhibition of IL-1α production: 16%
IL-1α; [3]
  Percentage of inhibition of IL-1α production: 17%
[1]; PHA stimulated, compound 10 μM
  Percentage of inhibition of proliferation of stimulated PBMC: 0%
[1]; PHA stimulated, compound 50 μM
  Percentage of inhibition of proliferation of stimulated PBMC: 0%
[1]; [4]
  Percentage of inhibition of proliferation of stimulated PBMC: 0%
[1]; [5]
  Percentage of inhibition of proliferation of stimulated PBMC: 0%
IL-8; LPS stimulated, compound 10 μM
  Percentage of inhibition of IL-8 production: 48%
IL-8; LPS stimulated, compound 50 μM
  Percentage of inhibition of IL-8 production: 0%
IL-8; PMA stimulated, compound 10 μM
  Percentage of inhibition of IL-8 production: 37%
IL-8; PMA stimulated, compound 50 μM
  Percentage of inhibition of IL-8 production: 0%
IL-8; [2]
  Percentage of inhibition of IL-8 production: 0%
IL-8; [3]
  Percentage of inhibition of IL-8 production: 0%

## CC[C@H]1OC(=O)[C@H](C)[C@@H](O)[C@H](C)[C@@H](O[C@@H]2O[C@H](C)C[C@H](N(C)C)[C@H]2O)[C@](C)(O)C[C@@H](C)CN(C(=O)Nc2cccc(C(F)(F)F)c2)[C@H](C)[C@@H](O)[C@]1(C)O [Compound 13]
TNF-α; LPS stimulated, compound 10 μM
  inhibition at 10 µM: 0%
TNF-α; LPS stimulated, compound 50 μM
  inhibition at 50 µM: 0%
TNF-α; PMA stimulated, compound 10 μM
  inhibition at 10 µM: 0%
TNF-α; PMA stimulated, compound 50 μM
  inhibition at 50 µM: 0%
TNF-α; [2]
  inhibition at 10 µM: 0%
TNF-α; [3]
  inhibition at 50 µM: 52%
IL-6; LPS stimulated, compound 10 μM
  inhibition at 10 µM: 0%
IL-6; LPS stimulated, compound 50 μM
  inhibition at 50 µM: 0%
IL-6; PMA stimulated, compound 10 μM
  inhibition at 10 µM: 84%
IL-6; PMA stimulated, compound 50 μM
  inhibition at 50 µM: 100%
IL-6; [2]
  inhibition at 10 µM: 52%
IL-6; [3]
  inhibition at 50 µM: 94%
IL-1α; LPS stimulated, compound 10 μM
  inhibition at 10 µM: 0%
IL-1α; LPS stimulated, compound 50 μM
  inhibition at 50 µM: 52%
IL-1α; PMA stimulated, compound 10 μM
  inhibition at 10 µM: 0%
IL-1α; PMA stimulated, compound 50 μM
  inhibition at 50 µM: 32%
IL-1α; [2]
  inhibition at 10 µM: 34%
IL-1α; [3]
  inhibition at 50 µM: 89%
[1]; PHA stimulated, compound 10 μM
  inhibition at 10 µM: 11%
[1]; PHA stimulated, compound 50 μM
  inhibition at 50 µM: 42%
[1]; [4]
  inhibition at 10 µM: 21%
[1]; [5]
  inhibition at 50 µM: 43%
IL-8; LPS stimulated, compound 10 μM
  inhibition at 10 µM: 0%
IL-8; LPS stimulated, compound 50 μM
  inhibition at 50 µM: 0%
IL-8; PMA stimulated, compound 10 μM
  inhibition at 10 µM: 0%
IL-8; PMA stimulated, compound 50 μM
  inhibition at 50 µM: 25%
IL-8; [2]
  inhibition at 10 µM: 62%
IL-8; [3]
  inhibition at 50 µM: 0%
